Laboratory results reported in patent US20110009379A1, “INDOLINONE COMPOUND” (ASTELLAS PHARMA INC., priority 2008, published 2011).
pEC50, pIC50: −log10 of the molar value.

Legend:
[1] = molecular target: T1, human TRPA1 (Homo sapiens, UniProt O75762, K186N/R3C/R58T); test: Measurement of TRPA1 activation activity (intracellular calcium, FLIPR, HEK293 cells stably expressing human TRPA1); format: cell-based; conditions: change of intracellular calcium concentration
T1 construct: expressed in transfected cells; pcDNA3.1(+) vector)
T1 sequence (O75762 whole entry R3C/R58T/K186N): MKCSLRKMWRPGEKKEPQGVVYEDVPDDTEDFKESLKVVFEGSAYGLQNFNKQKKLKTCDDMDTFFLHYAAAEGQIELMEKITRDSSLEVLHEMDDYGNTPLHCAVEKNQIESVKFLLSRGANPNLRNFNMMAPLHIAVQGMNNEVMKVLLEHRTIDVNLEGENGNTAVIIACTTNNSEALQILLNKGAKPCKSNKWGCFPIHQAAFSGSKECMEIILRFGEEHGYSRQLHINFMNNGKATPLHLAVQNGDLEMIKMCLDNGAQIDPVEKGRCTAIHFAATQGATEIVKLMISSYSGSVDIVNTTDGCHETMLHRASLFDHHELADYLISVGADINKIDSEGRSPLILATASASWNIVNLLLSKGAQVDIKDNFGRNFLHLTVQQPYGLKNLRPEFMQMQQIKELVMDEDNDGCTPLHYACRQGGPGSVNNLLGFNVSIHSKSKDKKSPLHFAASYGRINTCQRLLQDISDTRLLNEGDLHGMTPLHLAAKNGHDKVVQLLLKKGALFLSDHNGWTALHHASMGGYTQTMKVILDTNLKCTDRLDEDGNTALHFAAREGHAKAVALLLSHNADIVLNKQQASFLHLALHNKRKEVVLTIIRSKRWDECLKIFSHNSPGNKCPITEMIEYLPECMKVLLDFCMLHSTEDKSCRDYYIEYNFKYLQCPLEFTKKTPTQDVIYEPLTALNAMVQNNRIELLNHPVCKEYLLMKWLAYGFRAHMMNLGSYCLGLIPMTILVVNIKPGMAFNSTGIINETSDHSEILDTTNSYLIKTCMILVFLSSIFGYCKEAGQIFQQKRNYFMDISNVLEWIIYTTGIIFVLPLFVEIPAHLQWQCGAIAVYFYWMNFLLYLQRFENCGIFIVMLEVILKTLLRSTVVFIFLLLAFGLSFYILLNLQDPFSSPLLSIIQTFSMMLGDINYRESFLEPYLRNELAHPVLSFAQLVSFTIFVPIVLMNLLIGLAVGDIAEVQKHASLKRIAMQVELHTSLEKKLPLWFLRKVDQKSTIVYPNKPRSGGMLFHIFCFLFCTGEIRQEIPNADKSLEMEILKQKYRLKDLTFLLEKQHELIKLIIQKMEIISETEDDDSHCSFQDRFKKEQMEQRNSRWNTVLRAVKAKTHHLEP
Summary of the method: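 HEK293 cells stably expressing cloned human TRPA1 (G418-selected) were loaded with Fluo4-AM for 1 h in HBSS/HEPES pH 7.4 buffer containing probenecid. Intracellular calcium change after compound addition was recorded by FLIPR. EC50 values were calculated from these responses.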

[2] = molecular target: Cytochrome P450(2D6) (Homo sapiens, UniProt P10635); test: Cytochrome P450(2D6) enzyme inhibition test; format: in vitro ADME; conditions: CYP2D6, fluorescent substrate 1.5 μmol/L, 37° C., 20 minutes
Chain of Cytochrome P450(2D6) (P10635 whole entry): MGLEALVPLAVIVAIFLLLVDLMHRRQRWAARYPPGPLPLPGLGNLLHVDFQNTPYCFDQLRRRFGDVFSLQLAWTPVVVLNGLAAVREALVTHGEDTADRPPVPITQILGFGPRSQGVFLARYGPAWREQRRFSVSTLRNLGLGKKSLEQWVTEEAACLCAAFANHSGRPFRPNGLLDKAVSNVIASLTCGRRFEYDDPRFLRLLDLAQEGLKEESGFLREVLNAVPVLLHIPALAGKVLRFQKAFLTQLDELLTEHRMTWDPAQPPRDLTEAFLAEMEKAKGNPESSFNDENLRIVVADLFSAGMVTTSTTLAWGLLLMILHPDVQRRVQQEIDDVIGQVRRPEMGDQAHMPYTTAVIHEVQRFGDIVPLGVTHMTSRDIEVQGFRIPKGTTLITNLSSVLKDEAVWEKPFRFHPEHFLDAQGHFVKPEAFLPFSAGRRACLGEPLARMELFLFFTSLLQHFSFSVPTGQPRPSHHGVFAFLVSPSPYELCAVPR
Summary of the method: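 CYP2D6 (2.5×10^-8 M) incubated 20 min at 37 °C with 1.5 μmol/L AMMC substrate and compound (3.1×10^-7 to 2×10^-5 M) in pH 7.4 phosphate buffer with NADPH-regenerating system. Stopped with Tris/acetonitrile, fluorescence read at ex 390/em 460 nm, and IC50 taken at 50% inhibition.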

Structure (SMILES): O=C(O)/C=C1/C(=O)N(CC2CCCC2)c2c(F)cccc21 [Example 28, (2E)-[1-(cyclopentylmethyl)-7-fluoro-2-oxo-1,2-dihydro-3H-indol-3-ylidene]acetic acid]
- pEC50 [1]: 6.29
- pIC50 [2]: < 4.60
- melting point: 151 to 153 °C
